# Experimental data reported in PMC5218480 (PLoS ONE, 2017).
# Tested on: MV-4-11 cells
# Test: Gene expression microarray analysis (Affymetrix PrimeView) and GSEA
# Assay type: cell-based, human
# Parameters: RFU PODN (11730768_x_at) / Fold change /veh PODN (11730768_x_at) / RFU LINC00158 (11744669_a_at) / Fold change /veh LINC00158 (11744669_a_at) / RFU DUSP10 (11751237_a_at) / Fold change /veh DUSP10 (11751237_a_at) / RFU ID3 (11757404_x_at) / Fold change /veh ID3 (11757404_x_at) / RFU PLEKHG5 (11737974_s_at) / Fold change /veh PLEKHG5 (11737974_s_at) / RFU LRRC4B (11730491_at) / Fold change /veh LRRC4B (11730491_at) / RFU GIMAP4 (11747438_a_at) / Fold change /veh GIMAP4 (11747438_a_at) / RFU KRT8 (11758183_x_at) / Fold change /veh KRT8 (11758183_x_at) / RFU CNN1 (11734310_a_at) / Fold change /veh CNN1 (11734310_a_at) / RFU VPS37D (11726825_at) / Fold change /veh VPS37D (11726825_at) / RFU C10orf10 (11716522_x_at) / Fold change /veh C10orf10 (11716522_x_at) / RFU KIR2DL2 /// KIR2DL4 /// KIR2DL5A /// KIR2DL5B /// KIR2DS1 /// KIR2DS2 /// KIR2DS3 /// KIR2DS4 /// KIR3DL3 /// KIR3DL3 /// KIR3DS1 (11738374_at) / Fold change /veh KIR2DL2 /// KIR2DL4 /// KIR2DL5A /// KIR2DL5B /// KIR2DS1 /// KIR2DS2 /// KIR2DS3 /// KIR2DS4 /// KIR3DL3 /// KIR3DL3 /// KIR3DS1 (11738374_at) / RFU C1QL1 (11718748_at) / Fold change /veh C1QL1 (11718748_at) / RFU TMPRSS4 (11747572_a_at) / Fold change /veh TMPRSS4 (11747572_a_at) / RFU HAMP (11756126_x_at) / Fold change /veh HAMP (11756126_x_at) / RFU RNFT2 (11725882_a_at) / Fold change /veh RNFT2 (11725882_a_at) / RFU NR4A2 (11747474_a_at) / Fold change /veh NR4A2 (11747474_a_at) / RFU ABCC12 (11746883_a_at) / Fold change /veh ABCC12 (11746883_a_at) / RFU TMEM136 (11760407_x_at) / Fold change /veh TMEM136 (11760407_x_at) / RFU CLDN22 /// WWC2 (11732394_at) / Fold change /veh CLDN22 /// WWC2 (11732394_at) / RFU HLA-DPB1 (11760878_x_at) / Fold change /veh HLA-DPB1 (11760878_x_at) / RFU SPINT1 (11716480_a_at) / Fold change /veh SPINT1 (11716480_a_at) / RFU GAP43 (11754022_s_at) / Fold change /veh GAP43 (11754022_s_at) / RFU A4GNT (11735810_at) / Fold change /veh A4GNT (11735810_at) / RFU PRB3 (11715151_x_at) / Fold change /veh PRB3 (11715151_x_at) / RFU TUBB4B (11761932_at) / Fold change /veh TUBB4B (11761932_at) / RFU CAPN14 (11732068_a_at) / Fold change /veh CAPN14 (11732068_a_at) / RFU TMCC2 (11721928_a_at) / Fold change /veh TMCC2 (11721928_a_at) / RFU IRGQ (11745062_a_at) / Fold change /veh IRGQ (11745062_a_at) / RFU FAM174B (11720279_a_at) / Fold change /veh FAM174B (11720279_a_at) / RFU TMPRSS4 (11748680_a_at) / Fold change /veh TMPRSS4 (11748680_a_at) / RFU FAM212B (11763350_a_at) / Fold change /veh FAM212B (11763350_a_at) / RFU PLEKHG5 (11743358_a_at) / Fold change /veh PLEKHG5 (11743358_a_at) / RFU ZSCAN30 (11745921_a_at) / Fold change /veh ZSCAN30 (11745921_a_at) / RFU CMKLR1 (11741424_a_at) / Fold change /veh CMKLR1 (11741424_a_at) / RFU LOC101060620 /// MAPK8IP1 (11723275_at) / Fold change /veh LOC101060620 /// MAPK8IP1 (11723275_at) / RFU SPTSSB (11747773_x_at) / Fold change /veh SPTSSB (11747773_x_at) / RFU PRSS12 (11739890_at) / Fold change /veh PRSS12 (11739890_at) / RFU BIN1 (11741810_x_at) / Fold change /veh BIN1 (11741810_x_at) / RFU WNT11 (11732464_a_at) / Fold change /veh WNT11 (11732464_a_at) / RFU C10orf10 (11716521_a_at) / Fold change /veh C10orf10 (11716521_a_at) / RFU C5orf56 (11738089_at) / Fold change /veh C5orf56 (11738089_at) / RFU CYB561 (11721691_x_at) / Fold change /veh CYB561 (11721691_x_at) / RFU ANKRD19P (11752326_a_at) / Fold change /veh ANKRD19P (11752326_a_at) / RFU OR2T12 /// OR2T33 /// OR2T8 (11738714_s_at) / Fold change /veh OR2T12 /// OR2T33 /// OR2T8 (11738714_s_at) / RFU VCAN (11748164_a_at) / Fold change /veh VCAN (11748164_a_at) / RFU JSRP1 (11732532_at) / Fold change /veh JSRP1 (11732532_at) / RFU KRTAP10-11 (11738290_x_at) / Fold change /veh KRTAP10-11 (11738290_x_at) / RFU MYO3A (11730013_a_at) / Fold change /veh MYO3A (11730013_a_at) / RFU EBF3 (11725865_a_at) / Fold change /veh EBF3 (11725865_a_at) / RFU CAMK2N1 (11719241_x_at) / Fold change /veh CAMK2N1 (11719241_x_at) / RFU C5orf56 (11738088_a_at) / Fold change /veh C5orf56 (11738088_a_at) / RFU OLFML3 (11715873_a_at) / Fold change /veh OLFML3 (11715873_a_at) / RFU LOC100653217 /// NTM (11731650_a_at) / Fold change /veh LOC100653217 /// NTM (11731650_a_at) / RFU MAPK11 (11762145_a_at) / Fold change /veh MAPK11 (11762145_a_at) / RFU FIZ1 (11724087_x_at) / Fold change /veh FIZ1 (11724087_x_at) / RFU OASL (11726364_x_at) / Fold change /veh OASL (11726364_x_at) / RFU SOX15 (11748057_x_at) / Fold change /veh SOX15 (11748057_x_at) / RFU CD79A (11719716_a_at) / Fold change /veh CD79A (11719716_a_at) / RFU HIST1H1D (11736915_at) / Fold change /veh HIST1H1D (11736915_at) / RFU CASKIN2 (11723855_a_at) / Fold change /veh CASKIN2 (11723855_a_at) / RFU LOC730098 (11760151_x_at) / Fold change /veh LOC730098 (11760151_x_at) / RFU OR4N2 (11742367_at) / Fold change /veh OR4N2 (11742367_at) / RFU PRRT2 (11749266_a_at) / Fold change /veh PRRT2 (11749266_a_at) / RFU SNX32 (11753110_a_at) / Fold change /veh SNX32 (11753110_a_at) / RFU CDHR5 (11726645_a_at) / Fold change /veh CDHR5 (11726645_a_at) / RFU RCAN1 (11760418_a_at) / Fold change /veh RCAN1 (11760418_a_at) / RFU FAM167A (11723789_a_at) / Fold change /veh FAM167A (11723789_a_at) / RFU FAM26E (11764081_at) / Fold change /veh FAM26E (11764081_at) / RFU ISYNA1 (11749810_s_at) / Fold change /veh ISYNA1 (11749810_s_at) / RFU ACY1 (11761880_at) / Fold change /veh ACY1 (11761880_at) / RFU 11764098_at / Fold change /veh 11764098_at / RFU SAMD14 (11745864_x_at) / Fold change /veh SAMD14 (11745864_x_at) / RFU NPB (11741838_a_at) / Fold change /veh NPB (11741838_a_at) / RFU TMPRSS6 (11731388_a_at) / Fold change /veh TMPRSS6 (11731388_a_at) / RFU KRTAP10-2 (11738614_at) / Fold change /veh KRTAP10-2 (11738614_at) / RFU ARHGAP8 /// PRR5-ARHGAP8 (11727945_x_at) / Fold change /veh ARHGAP8 /// PRR5-ARHGAP8 (11727945_x_at) / RFU KRTAP5-7 /// NADSYN1 (11734609_at) / Fold change /veh KRTAP5-7 /// NADSYN1 (11734609_at) / RFU RASL12 (11751679_a_at) / Fold change /veh RASL12 (11751679_a_at) / RFU CDKN2B (11736163_a_at) / Fold change /veh CDKN2B (11736163_a_at) / RFU PRF1 (11729649_at) / Fold change /veh PRF1 (11729649_at) / RFU, ZNF638 /// ZNF638-IT1 / Fold change vs veh, ZNF638 /// ZNF638-IT1 / RFU, PANK3 / Fold change vs veh, PANK3 / RFU, SH3YL1 / Fold change vs veh, SH3YL1 / RFU, ZEB2 / Fold change vs veh, ZEB2 / RFU, NRIP1 / Fold change vs veh, NRIP1 / RFU, PTTG1IP / Fold change vs veh, PTTG1IP / RFU, CAPN2 / Fold change vs veh, CAPN2 / RFU, MED14 / Fold change vs veh, MED14 / RFU, SNORA58 / Fold change vs veh, SNORA58 / RFU, C1orf63 / Fold change vs veh, C1orf63 / RFU, LRRFIP1 / Fold change vs veh, LRRFIP1 / RFU, NDUFAF7 / Fold change vs veh, NDUFAF7 / RFU, SLC12A2 / Fold change vs veh, SLC12A2 / RFU, IBTK / Fold change vs veh, IBTK / RFU, ESF1 / Fold change vs veh, ESF1 / Fold change vs veh, TMEM50B / RFU, TAOK1 / Fold change vs veh, TAOK1 / RFU, ACBD3 / Fold change vs veh, ACBD3 / RFU, TMA16 / Fold change vs veh, TMA16 / RFU, RWDD3 / Fold change vs veh, RWDD3 / RFU, BCAT1 / Fold change vs veh, BCAT1 / RFU, EDEM3 / Fold change vs veh, EDEM3 / RFU, TMEM33 / Fold change vs veh, TMEM33 / RFU, WDR75 / Fold change vs veh, WDR75 / RFU, AHCTF1 / Fold change vs veh, AHCTF1 / RFU, TFRC / Fold change vs veh, TFRC / RFU, ZDHHC17 / Fold change vs veh, ZDHHC17 / RFU, NOM1 / Fold change vs veh, NOM1 / RFU, ARL8B / Fold change vs veh, ARL8B / RFU, ZBTB11 / Fold change vs veh, ZBTB11 / RFU, TAMM41 / Fold change vs veh, TAMM41 / RFU, KIAA1704 /// LOC100996395 / Fold change vs veh, KIAA1704 /// LOC100996395 / RFU, ING1 / Fold change vs veh, ING1 / RFU, TRMT61B / Fold change vs veh, TRMT61B / RFU, FUBP3 / Fold change vs veh, FUBP3 / RFU, TP53 / Fold change vs veh, TP53 / RFU, TNKS2 / Fold change vs veh, TNKS2 / RFU, ZFP14 / Fold change vs veh, ZFP14 / RFU, ACTR2 / Fold change vs veh, ACTR2 / RFU, PPP3R1 / Fold change vs veh, PPP3R1 / RFU, PIK3R1 / Fold change vs veh, PIK3R1 / RFU, HNRNPA1 / Fold change vs veh, HNRNPA1 / RFU, RNF170 / Fold change vs veh, RNF170 / RFU, ZNF28 / Fold change vs veh, ZNF28 / RFU, RNGTT / Fold change vs veh, RNGTT / RFU, OGT / Fold change vs veh, OGT / RFU, BRD1 / Fold change vs veh, BRD1 / RFU, MARS / Fold change vs veh, MARS / RFU, ZNF655 / Fold change vs veh, ZNF655 / RFU, FAHD1 / Fold change vs veh, FAHD1 / RFU, BDP1 / Fold change vs veh, BDP1 / RFU, LRRCC1 / Fold change vs veh, LRRCC1 / RFU, ARID1A / Fold change vs veh, ARID1A / RFU, ZNF146 / Fold change vs veh, ZNF146 / RFU, ZNF330 / Fold change vs veh, ZNF330 / RFU, GPN3 / Fold change vs veh, GPN3 / RFU, C9orf123 / Fold change vs veh, C9orf123 / RFU, N4BP2L2 / Fold change vs veh, N4BP2L2 / RFU, ARFIP1 / Fold change vs veh, ARFIP1 / RFU, FAM179B / Fold change vs veh, FAM179B / RFU, BCL10 / Fold change vs veh, BCL10 / RFU, UHRF1BP1L / Fold change vs veh, UHRF1BP1L / RFU, BET1 / Fold change vs veh, BET1 / RFU, CNOT2 / Fold change vs veh, CNOT2 / RFU, ZNF268 / Fold change vs veh, ZNF268 / Fold change vs veh, ZNF507 / RFU, DGCR2 / Fold change vs veh, DGCR2 / RFU, WDSUB1 / Fold change vs veh, WDSUB1 / Fold change vs veh, HSP90B1 /// MIR3652 / RFU, ADSS / Fold change vs veh, ADSS / RFU, GK / Fold change vs veh, GK / RFU, ZNF148 / Fold change vs veh, ZNF148 / RFU, TAF9 / Fold change vs veh, TAF9 / RFU, SLC1A5 / Fold change vs veh, SLC1A5 / RFU, SLMO2 / Fold change vs veh, SLMO2 / RFU, ABCC4 / Fold change vs veh, ABCC4 / RFU, LOC101060439 /// RAP1B / Fold change vs veh, LOC101060439 /// RAP1B / RFU, RFX7 / Fold change vs veh, RFX7 / RFU, GTPBP10 / Fold change vs veh, GTPBP10 / RFU, CNEP1R1 / Fold change vs veh, CNEP1R1 / RFU, BIVM-ERCC5 /// ERCC5 / Fold change vs veh, BIVM-ERCC5 /// ERCC5 / RFU, ILF3 / Fold change vs veh, ILF3 / RFU 11762660_at / Fold change /veh 11762660_at / RFU VCAN (11757783_s_at) / Fold change /veh VCAN (11757783_s_at) / RFU DDX43 (11728927_at) / Fold change /veh DDX43 (11728927_at) / RFU KRT8 (11758188_x_at) / Fold change /veh KRT8 (11758188_x_at) / RFU NKD1 (11759106_at) / Fold change /veh NKD1 (11759106_at) / RFU SRD5A1 (11742802_a_at) / Fold change /veh SRD5A1 (11742802_a_at) / RFU TPSAB1 /// TPSB2 (11721975_s_at) / Fold change /veh TPSAB1 /// TPSB2 (11721975_s_at) / RFU GSTM3 (11746129_a_at) / Fold change /veh GSTM3 (11746129_a_at) / RFU IL23R (11737362_x_at) / Fold change /veh IL23R (11737362_x_at) / RFU TMEM51 (11727254_a_at) / Fold change /veh TMEM51 (11727254_a_at) / RFU PIWIL2 (11732686_x_at) / Fold change /veh PIWIL2 (11732686_x_at) / RFU ORM1 (11744905_x_at) / Fold change /veh ORM1 (11744905_x_at) / RFU CCDC152 (11743942_at) / Fold change /veh CCDC152 (11743942_at) / RFU ECM1 (11717891_a_at) / Fold change /veh ECM1 (11717891_a_at) / RFU IL23R (11748794_a_at) / Fold change /veh IL23R (11748794_a_at) / RFU TNFAIP8L3 (11732012_x_at) / Fold change /veh TNFAIP8L3 (11732012_x_at) / RFU MBOAT4 (11741988_at) / Fold change /veh MBOAT4 (11741988_at) / RFU 11764193_at / Fold change /veh 11764193_at / RFU TMEM53 (11763286_at) / Fold change /veh TMEM53 (11763286_at) / RFU MAGEB2 (11727129_at) / Fold change /veh MAGEB2 (11727129_at) / RFU TMEM200A (11744735_a_at) / Fold change /veh TMEM200A (11744735_a_at) / RFU CCDC152 (11751479_a_at) / Fold change /veh CCDC152 (11751479_a_at) / RFU FAM211A (11726209_a_at) / Fold change /veh FAM211A (11726209_a_at) / RFU RGS16 (11746705_a_at) / Fold change /veh RGS16 (11746705_a_at) / RFU VCAN (11755009_s_at) / Fold change /veh VCAN (11755009_s_at) / RFU RHOB (11743442_s_at) / Fold change /veh RHOB (11743442_s_at) / RFU RGS16 (11720943_a_at) / Fold change /veh RGS16 (11720943_a_at) / RFU RGS16 (11720944_at) / Fold change /veh RGS16 (11720944_at) / RFU, VPS4B / Fold change vs veh, VPS4B / RFU, CREB1 / Fold change vs veh, CREB1 / RFU, DNAJC13 / Fold change vs veh, DNAJC13 / RFU, GNAQ / Fold change vs veh, GNAQ / RFU, CDK5R1 / Fold change vs veh, CDK5R1 / RFU, ZRANB3 / Fold change vs veh, ZRANB3 / RFU, CUL4A / Fold change vs veh, CUL4A / RFU, CCNY / Fold change vs veh, CCNY / RFU, UFL1 / Fold change vs veh, UFL1 / RFU, COG3 / Fold change vs veh, COG3 / RFU, DIAPH2 / Fold change vs veh, DIAPH2 / RFU, SKA2 / Fold change vs veh, SKA2 / RFU, AFF3 / Fold change vs veh, AFF3 / RFU, LMF1 / Fold change vs veh, LMF1 / RFU, IPO11 / Fold change vs veh, IPO11 / RFU, DFFB / Fold change vs veh, DFFB / RFU, FOXP1 / Fold change vs veh, FOXP1 / RFU, CARD8 / Fold change vs veh, CARD8 / RFU, STRN3 / Fold change vs veh, STRN3 / RFU, ADK / Fold change vs veh, ADK / RFU, RASSF2 / Fold change vs veh, RASSF2 / RFU, WIPF1 / Fold change vs veh, WIPF1 / RFU, LARP1B / Fold change vs veh, LARP1B / RFU, RASA1 / Fold change vs veh, RASA1 / RFU, RB1 / Fold change vs veh, RB1 / RFU, PPFIA1 / Fold change vs veh, PPFIA1 / RFU, MAT2A / Fold change vs veh, MAT2A / RFU, CCT5 / Fold change vs veh, CCT5 / RFU, WDR92 / Fold change vs veh, WDR92 / RFU, CUX1 / Fold change vs veh, CUX1 / RFU, TTC7A / Fold change vs veh, TTC7A / RFU, TMEM135 / Fold change vs veh, TMEM135 / RFU, DEPTOR / Fold change vs veh, DEPTOR / RFU, CPM / Fold change vs veh, CPM / RFU, DNAJB6 / Fold change vs veh, DNAJB6 / RFU, CACNA2D3 / Fold change vs veh, CACNA2D3 / RFU, DTX4 / Fold change vs veh, DTX4 / RFU, TFCP2 / Fold change vs veh, TFCP2 / RFU, GMCL1 /// GMCL1P1 / Fold change vs veh, GMCL1 /// GMCL1P1 / RFU, AEBP2 / Fold change vs veh, AEBP2 / RFU, SNHG1 /// SNORD22 /// SNORD25 /// SNORD26 /// SNORD27 /// SNORD28 /// SNORD29 /// SNORD31 / Fold change vs veh, SNHG1 /// SNORD22 /// SNORD25 /// SNORD26 /// SNORD27 /// SNORD28 /// SNORD29 /// SNORD31 / Fold change (Aza/veh), C12orf56 (ProbeSet 11735607_a_at) / Fold change (ACY-1035/veh), C12orf56 (ProbeSet 11735607_a_at) / Fold change (Aza/veh), FGFR1OP (ProbeSet 11751329_s_at) / Fold change (ACY-1035/veh), FGFR1OP (ProbeSet 11751329_s_at) / Fold change (Aza/veh), VPS36 (ProbeSet 11739960_a_at) / Fold change (ACY-1035/veh), VPS36 (ProbeSet 11739960_a_at) / RFU SYPL1 (11715823_x_at) / Fold change /veh SYPL1 (11715823_x_at) / RFU IGFBP7 (11715501_s_at) / Fold change /veh IGFBP7 (11715501_s_at) / RFU REEP3 (11722064_at) / Fold change /veh REEP3 (11722064_at) / RFU IGLL1 (11728026_x_at) / Fold change /veh IGLL1 (11728026_x_at): dose or concentration left out as unconfirmed
# Details: MV-4-11 cells, 48 hours
smiles,measurement,value
Nc1ncn([C@@H]2O[C@H](CO)[C@@H](O)[C@H]2O)c(=O)n1 [azacitidine],RFU KRT8 (11758183_x_at),20.69 RFU
